Results from ChEMBL document CHEMBL3988442, “University of Dundee, Small-Polar-MMV Screening Library” (2021).
Values joined by “and” are separate entries in the source; they are usually repeats but may differ in a detail not shown here. Equal entries are not always repeated.

molecular target: T1, Coenzyme A biosynthesis bifunctional protein CoaBC (Mycobacterium tuberculosis (strain ATCC 25618 / H37Rv), UniProt P9WNZ1); assay: Biomol Green assay for MtCoaBC inhibitor, OD650 read; assay type: functional
T1 sequence (P9WNZ1 whole entry): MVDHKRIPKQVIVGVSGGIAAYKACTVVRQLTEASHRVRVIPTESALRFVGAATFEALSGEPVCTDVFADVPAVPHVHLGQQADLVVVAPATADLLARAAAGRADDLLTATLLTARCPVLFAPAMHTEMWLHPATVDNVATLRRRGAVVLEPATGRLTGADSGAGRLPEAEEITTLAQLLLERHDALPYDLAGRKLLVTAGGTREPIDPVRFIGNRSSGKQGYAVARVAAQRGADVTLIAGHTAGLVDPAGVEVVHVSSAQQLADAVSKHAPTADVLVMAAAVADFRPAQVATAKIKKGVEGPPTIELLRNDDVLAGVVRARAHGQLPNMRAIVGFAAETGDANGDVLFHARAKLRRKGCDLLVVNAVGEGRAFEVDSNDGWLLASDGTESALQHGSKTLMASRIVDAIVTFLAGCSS

Structure (SMILES)	IC50
NS(=O)(=O)c1cccnc1Nc1c(Cl)cccc1Cl	> 30.2 µM
O=C(CN1CCN(C(=O)c2ccccc2)CC1)Nc1ncc(Br)cc1Br	> 30.2 µM
O=c1c2ccccc2nc2n1CCC2O (configuration not stated)	> 30.2 µM
O=C1c2c(O)cc(O)cc2O[C@@H](c2ccc(O)cc2)[C@@H]1O	> 30.2 µM
COCCCN(Cc1ccccn1)S(=O)(=O)N(C)C	> 30.2 µM
CN1CCOC[C@H]1c1nc(-c2ccc(F)cc2F)c[nH]1	> 30.2 µM
Cc1cccc(CN2C[C@@H](F)[C@@H](OCc3nc4ccccc4[nH]3)C2)n1	> 30.2 µM
CC(C)CN1C[C@@H]2OCC(=O)N(c3ccccc3)[C@@H]2C1	> 30.2 µM
COc1ccc(CN[C@@H]2CO[C@H](CNC(=O)N3CCOCC3)[C@H]2O)cc1	> 30.2 µM
Cc1noc([C@@H]2C[C@H](NS(=O)(=O)Cc3ccccc3)CN2C)n1	> 30.2 µM
Cc1ccc(S(=O)(=O)NC[C@H]2OC[C@@H](NCc3cccs3)[C@@H]2O)cc1	> 30.2 µM
O=C1COC[C@H]([C@H](O)c2ccc(NC(=O)c3cccnc3)cc2)N1	> 30.2 µM
O=C1N(Cc2ccccn2)C[C@H]2CN(C3CCC3)CCN12	> 30.2 µM
CC(=O)N1CCC(N2CCN3C(=O)N(Cc4ccccn4)C[C@H]3C2)CC1	> 30.2 µM
c1cc(-c2nnc([C@H]3CCNC3)o2)ccn1	> 30.2 µM
CS(=O)(=O)c1ccc(-c2c[nH]c([C@@H]3COCCN3)n2)cc1	> 30.2 µM
COC(=O)c1cccc2nc([C@H]3CCN(Cc4ccccc4)C3)oc12	> 30.2 µM
CC(C)CCc1n[nH]c(C(=O)O)c1Cl	> 50.1 µM
CN(Cc1ccccc1)C(=O)Cn1nc(N2CCOCC2)ccc1=O	> 30.2 µM
Cc1cc(C)nc(N2CCCC(C(=O)Nc3n[nH]c(C(C)C)n3)C2)n1 (configuration not stated)	> 30.2 µM
Cc1cc(C)nc(N2CCC(C(=O)Nc3ncc[nH]3)CC2)n1	> 30.2 µM
CS(=O)(=O)N1CCN(C(=O)c2cc(-c3ccc(Br)s3)n[nH]2)CC1	> 30.2 µM
O=C(CCNc1ncccn1)Nc1ccc(Cn2cncn2)cc1	> 30.2 µM

Structure (SMILES)	IC50
CCN1CCCC1CNC(=O)Cc1c(-c2ccc(Cl)cc2)n[nH]c1C (configuration not stated)	> 30.2 µM
Cc1cc(C)n(-c2cccc(C(=O)Nc3n[nH]c(C4CCCO4)n3)c2)n1 (configuration not stated)	> 30.2 µM
Cn1cnc2cc(NC(=O)c3n[nH]c4c3CCC4)ccc21	> 30.2 µM
O=C(NCCc1ccccn1)c1n[nH]c2c1CCC2	> 30.2 µM
COc1ccc(CC(=O)Nc2ccc3ncn(C(C)C)c(=O)c3c2)cc1	> 30.2 µM
O=C(O)C1CCN(c2nc3c(-c4ccccc4F)csc3c(=O)[nH]2)CC1	> 30.2 µM
COC(=O)c1ccc(S(=O)(=O)N2CCC(Oc3cccnn3)CC2)cc1	> 30.2 µM
Cc1cccc(CS(=O)(=O)NCc2nn(C)c3c2COCC3)c1	> 30.2 µM
CCN1CCOCC2(CCCN(C(=O)c3cnccn3)C2)C1 (configuration not stated)	> 30.2 µM
CC[C@@H]1N(Cc2cc(OC)cc(OC)c2)CCC[C@]12CCC(=O)N2C	> 30.2 µM
CN(Cc1cccnc1)CC1CC12CCN(Cc1nccs1)CC2 (configuration not stated)	> 50.1 µM
O=S(=O)(c1cccc(F)c1)N1C[C@@H]2COC[C@]2(COCC2CC2)C1	> 30.2 µM
CCOCC1CN(Cc2ccoc2)Cc2cn(CC3CC3)nc21 (configuration not stated)	> 30.2 µM
COCC1c2nnn(CC3CC3)c2CCN1C(=O)N1CCCC1 (configuration not stated)	> 30.2 µM
COCC1c2nnn(CC3CC3)c2CCN1C(=O)c1cccn1C (configuration not stated)	> 30.2 µM
Cc1nc(C)n(CC2CN(S(C)(=O)=O)Cc3nccn3C2)n1 (configuration not stated)	> 30.2 µM
Cc1noc(C2CCC3(CCN(C(=O)c4ccncn4)CC3)O2)n1 (configuration not stated)	> 30.2 µM
O=C(NCCc1ccncc1)[C@H]1C[C@@H]2CCN(c3nncs3)C[C@H]2O1	> 30.2 µM
Cc1cccc(CN2CC3(CCN(C(N)=O)CC3)OCC2=O)n1	> 30.2 µM
Cn1cc(CN2CCCC3(CCN(Cc4ccncc4)C3=O)C2)cn1 (configuration not stated)	> 30.2 µM
CCOCC1CN(C(=O)C2=CCCC2)Cc2cnn(C)c21 (configuration not stated)	> 30.2 µM
Cn1cccc1CN1CCc2ncnc(-c3cccnc3)c2CC1	> 30.2 µM
CN(C)CCO[C@@H]1CC[C@H]2[C@H]1OCCN2C(=O)c1ccncc1	> 30.2 µM

Structure (SMILES)	IC50
Cc1ncnc2c1CCN(C(=O)c1ccoc1)CC2	> 30.2 µM
COCCNC(=O)c1nc2c(s1)CCCN2c1ccc(C)nn1	> 30.2 µM
Cc1cccc(-c2cc(C(=O)O)sn2)c1	> 50.1 µM
Cc1c(C(=O)N2CCN(c3ccccn3)CC2)n(C)c2ccc(Cl)cc12	> 30.2 µM
COc1ccccc1C1CC(=O)Nc2c1c(=O)[nH]n2C1CCCC1 (configuration not stated)	> 30.2 µM
COc1ccc(-c2nnsc2C(=O)N2CCC(C(N)=O)CC2)cc1	> 30.2 µM
Cc1cs/c(=N\C(=O)Cn2nc(N3CCOCC3)ccc2=O)[nH]1	> 30.2 µM
Cc1ccc(-n2c(O)cc(C)c(C#N)c2=O)c(C)c1	> 30.2 µM
Cc1ccc(S(=O)(=O)Nc2ccc(N3CCSCC3)c(C(=O)O)c2)s1	> 30.2 µM (2×) and 32.4 µM and 45.1 µM
Cc1sc(NC(=O)CN(C)CCOc2cccc(F)c2)c(C)c1C	> 30.2 µM
CN(CC(C)(CO)CO)C(=O)Nc1cc(Cl)cc(Cl)c1	> 30.2 µM
CC(NCCCN1CCCC1=O)c1cc(Br)ccc1F (configuration not stated)	> 30.2 µM
CC(NCC1(N(C)C)CCOCC1)c1ccc(SC(F)F)cc1 (configuration not stated)	> 30.2 µM
Cc1c(C(=O)N2CCC2)nnn1-c1ccc2ncccc2c1	> 30.2 µM
CCC(c1ccncc1)N(C)S(C)(=O)=O (configuration not stated)	> 30.2 µM
COc1ccc(-n2cc(CNC(=O)c3cc[nH]n3)nn2)cc1	> 30.2 µM
Cc1nnc2n1CC(CNCc1nc(-c3cccs3)no1)CC2 (configuration not stated)	> 30.2 µM
NC(=O)CN1CCC(NC(=O)COCCOc2ccccc2)CC1	> 30.2 µM
CC(C)NC1CCN(CCc2ccc3c(c2)CCO3)CC1	> 50.1 µM
CC(C)n1nnnc1-c1ccc(NC(=O)C(C)(C)C#N)cc1F	> 30.2 µM
CCC(CO)Nc1nc(C(F)F)nc2ccccc12 (configuration not stated)	> 30.2 µM
O=C1CN(Cc2occc2C(=O)NCCc2ccc(F)cc2)CCN1	> 30.2 µM
CC(C)c1noc(C[S+]([O-])CC(=O)Nc2ccc(F)c(F)c2)n1 (configuration not stated)	> 30.2 µM

Structure (SMILES)	IC50
CC(C)(CNC(=O)C1(c2ccccc2)CCOCC1)C(=O)O	> 30.2 µM
O=C(NCC(O)c1ccsc1)c1sccc1OC(F)F (configuration not stated)	> 30.2 µM
O=C(CCNc1ccccc1)NC1CCN(C(=O)C2CCCCC2)CC1	> 30.2 µM
CC(C(=O)N1CCCC1)S(=O)(=O)Cc1noc(C(C)(C)C)n1 (configuration not stated)	> 30.2 µM
COC(=O)C(C)CN(C)S(=O)(=O)c1c(Br)cc2[nH]c(=O)oc2c1Cl (configuration not stated)	> 30.2 µM
CC(c1nc(-c2ccccc2)no1)N1CCc2c(ncn2C2CC2)C1 (configuration not stated)	> 30.2 µM
C1=C(CNC2CCc3ncnn3C2)COc2ccccc21 (configuration not stated)	> 30.2 µM
Cc1nc(-c2cc(C(=O)O)co2)cs1	> 30.2 µM
NC(=O)CC1CCN(S(=O)(=O)c2cnn(-c3ccccc3)c2)CC1	> 30.2 µM
NC(=O)C1CCN(S(=O)(=O)c2cnn(-c3ccccc3)c2)C1 (configuration not stated)	> 30.2 µM
CCCc1noc(C(C)N2CCN(CCn3ccccc3=O)CC2)n1 (configuration not stated)	> 30.2 µM
CC(NC(=O)CSCC(N)=O)c1ccc(Oc2ccccc2)cc1 (configuration not stated)	> 30.2 µM
Cc1ccc(CNC(=O)COc2ccc3c(c2)OCC3O)cc1 (configuration not stated)	> 30.2 µM
CCC(c1ccc(F)cc1F)N1CCN(CCO)CC1 (configuration not stated)	> 30.2 µM
CC1CCN(c2ccc(C(=O)N3CCCC3c3ccc[nH]3)cn2)CC1 (configuration not stated)	> 30.2 µM
CC(C)N1CCC(NC(=O)c2cn(-c3ccc(F)cc3)nn2)C1 (configuration not stated)	> 30.2 µM
CCSCc1csc(-c2ccc(S(C)(=O)=O)cc2)n1	> 30.2 µM
COc1ccccc1OCC(=O)NS(=O)(=O)c1cccnc1	> 30.2 µM
Cc1cnn(Cc2ccc(NC(=O)N3CCCC3)cc2)c1	> 30.2 µM
CCN(CC)C1CCN(C(=O)NCc2cccc(-n3cccn3)c2)C1 (configuration not stated)	> 30.2 µM
COc1c(C2CCCN2CC(=O)Nc2nccs2)c(C)nn1C (configuration not stated)	> 30.2 µM
CCn1ccnc1CNCc1ccc(C)cc1OC(C)(C)C	> 30.2 µM
CC1COCCN1C(=O)Cc1cc(Cl)c2c(c1)OCCO2 (configuration not stated)	> 30.2 µM

Structure (SMILES)	IC50
COCCNC(=O)CCNc1cc(C)nc(-c2ccncc2)n1	> 30.2 µM
COc1ccccc1N1CCN(CC(=O)NC(C)c2ccco2)CC1 (configuration not stated)	> 30.2 µM
COC1CCN(CCNC(=O)NC(C)c2ccc(F)c(F)c2)CC1 (configuration not stated)	> 30.2 µM
O=C(Nc1ccc(-n2cncn2)nc1)N(CC1CCOC1)C1CC1 (configuration not stated)	> 30.2 µM
CC(NC(=O)CNC(=O)OC(C)(C)C)c1ccc(Cl)s1 (configuration not stated)	> 30.2 µM
Cc1nc(N2CCC(CN3CCCC3)CC2)c2cnn(C)c2n1	> 30.2 µM
Cc1ccc(C)c(CC(=O)NC2(C#N)CCOCC2)c1	> 30.2 µM
Cc1cc(C)n(C2CN(CC(=O)N(C)Cc3cnn(C)c3)C2)n1	> 30.2 µM
Cc1cc(C(=O)N[C@H](C)c2onc(-c3cccnc3)c2C(=O)O)c(C)o1	> 30.2 µM
NC(Cc1nc(-c2ccccc2)no1)c1ccccc1 (configuration not stated)	> 30.2 µM
Cc1ccc(CN2CCC3(CC2)C(=O)Nc2ccccc23)s1	> 30.2 µM
O=C(NCc1ccco1)[C@H]1C[C@@H]2CCN(c3nncs3)C[C@H]2O1	> 30.2 µM
COCCNC(=O)[C@H]1C[C@@H]2CCN(c3ccccc3)C[C@H]2O1	> 30.2 µM
Cn1cc(N2C(=O)CC[C@@H]3[C@H]2CCN3Cc2nccs2)cn1	> 30.2 µM
O=C(NCc1ccco1)[C@H]1C[C@@H]2CCN(c3ncccn3)C[C@H]2O1	> 30.2 µM
O=C([C@H]1C[C@@H]2CCN(c3cccc(F)c3)C[C@H]2O1)N1CCCC1	> 30.2 µM
Cc1nnc(N2C[C@@H](OCC3CCCC3)[C@H]3OCCC[C@H]32)s1	> 30.2 µM
Cn1nccc1-c1ccc2nc(C3CCN(CC4CC4)CC3)nn2c1	> 30.2 µM
Cc1cncc(C(=O)N2CCO[C@H]3[C@H](OCCN(C)C)CC[C@@H]32)c1	> 30.2 µM
COc1cc(O)cc2c1C(=O)CC(c1ccc(O)cc1)O2 (configuration not stated)	> 30.2 µM
